Results on 21 compounds are retold here after patent publication US20230225991A1, “COMPOUNDS FOR USE IN THE TREATMENT OF ACUTE INTERMITTENT PORPHYRIA” (VESTLANDETS INNOVASJONSSELSKAP AS, priority 2019, published 2023).

Values after ≈ are worked out from the molar mass of the structure shown.

In series [1] the target is T1, HMBS (Homo sapiens, UniProt P08397).
T1 sequence (P08397 1-361): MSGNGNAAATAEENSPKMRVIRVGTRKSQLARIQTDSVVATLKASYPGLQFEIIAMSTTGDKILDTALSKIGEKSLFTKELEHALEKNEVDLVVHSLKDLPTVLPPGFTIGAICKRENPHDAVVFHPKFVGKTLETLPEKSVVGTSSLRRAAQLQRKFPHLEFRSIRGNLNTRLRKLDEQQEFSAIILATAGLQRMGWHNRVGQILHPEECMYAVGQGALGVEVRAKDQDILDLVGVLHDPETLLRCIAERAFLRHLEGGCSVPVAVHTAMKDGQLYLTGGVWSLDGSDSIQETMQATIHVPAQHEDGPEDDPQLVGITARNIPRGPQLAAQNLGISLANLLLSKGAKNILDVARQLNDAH
The series is described as follows: Octet RED KD determination (Example 21). Format: binding. Further details: Full-length HMBS was cloned into pET-28a(+)-TEV vector and transformed into BL21 (DE3) cells for expression; 6xHis (N, cleaved yes); TEV protease cleavage site (N, cleaved yes); made in house; host or cells: E. coli BL21 (DE3). The conditions noted are these: steady state analysis, 6.25 to 500 μM, PBS-P+ 5% DMSO. The procedure: Octet RED (Forte Bio) was used for screening binding and determining the KD values of various compounds. OctetRED is based on the technique called Bio-layer interferometry (BLI). It measures changes in an interference pattern generated from visible light reflected from an optical layer and a biolayer containing proteins of interest. In the assay the target protein is biotinylated and coupled as a layer on the optic probe (Super Strepavidin). The concentration series was from 6.25 to 500 μM.
For the analysis method of KD determination, steady state analysis was used, where the response from steady state of the association phase was used for determining the binding curve for the analyte. Buffer for the analysis was selected to PBS-P+5% DMSO.
On the technique in general: In BLI a coated tip is dipped into the sample, and binding shifts an interference pattern.

Series [2] can be described thus: Solubility in DMSO and in buffer (Table 5). It counts as physicochemical. The following applies: for Soluble in DMSO (100%): 100% DMSO; for solubility: aqueous buffer, numeric values; for solubility / Solubility in buffer: buffer; for Solubility in buffer: stated in words.
Series [3] concerns the target T2, WT-HMBS (Homo sapiens, UniProt P08397).
T2 construct: Full-length HMBS was cloned into pET-28a(+)-TEV vector and transformed into BL21 (DE3) cells for expression; 6xHis (N, cleaved yes); TEV protease cleavage site (N, cleaved yes); made in house; host or cells: E. coli BL21 (DE3)
T2 sequence (P08397 1-361): T1 sequence (P08397 1-361)
The series is described as follows: DSF thermal upshift (ΔTm) of HMBS. Format: binding. The conditions noted are these: Table 3, average compound concentration 122 μM (2% DMSO). On the procedure: Compounds BG-2, BG-3 and BG-4 were tested on recombinant WT-HMBS using DSF and tryptic proteolysis.

Series [4] concerns the target T2, WT-HMBS. The series is described as follows: Limited proteolysis by trypsin. It counts as biochemical. The conditions noted are these: Table 3; 84 μM compound, 2% DMSO. The procedure:
Limited proteolysis by trypsin was performed at 37° C. in 20 mM HEPES, 150 mM NaCl, 2% DMSO, pH 8.2, with 0.15 μg/μl HMBS in the absence (DMSO-control) or presence of 84 μM compound and 2% DMSO. The proteolysis was initiated by adding 1 μg/ml TPCK-treated trypsin (Sigma-Aldrich). After 30 min, aliquots were removed and transferred to Laemmli loading buffer containing 2 μg/ml soybean trypsin inhibitor. Samples resolved by electrophoresis with 10% Mini-Protean® TGX™ gels (Bio-Rad Laboratories, Inc.) were analyzed using the Image Lab™ software (Bio-Rad Laboratories, Inc.). The unpaired t-test (two tailed) was performed using GraphPad Prism.
Limited tryptic proteolysis was also applied to compound BG-1. Proteolysis of WT-HMBS provided three major bands with relative content 34.5±0.3%, 14.7±0.8% and 50.9±0.5%, corresponding to remaining full-length HMBS (˜42.5 kDa), and two fragments of ˜41.0 kDa and ˜31.5 kDa, respectively (FIG. 1). […] The effect of this compound at 84 μM on the steady-state enzyme kinetics of HMBS was then calculated (Table 2).

Series [5] concerns the target T2, WT-HMBS. The series is described as follows: Octet RED96 KD determination (Example 22). It counts as binding. The following applies: PBS-P+ 5% DMSO; for Binding: Octet RED96, 3.1 to 150 μM; for Kd: Octet RED96, steady state, sigmoidal fitting, 3.1 to 150 μM. On the procedure: Octet RED96 (Forte Bio) was used for screening binding and determining the KD values for certain compounds. In the assay the target protein (WT-HMBS) was biotinylated and coupled as a layer on the optic probe. The concentration series for the tested compounds were from 3.1 to 150 μM, dissolved in PBS-P+5% DMSO.
For the analysis method of KD determination, steady state analysis was used in which the response from steady-state of the association phase was used for determining the binding curve for the analyte. KD values were calculated using sigmoidal fitting. The buffer for the analysis was selected to PBS-P+5% DMSO.

Series [6] has as its target T1, HMBS. The series is described as follows: Activity measurements in vitro (Example 23, TECAN plate reader). Format: biochemical. The conditions noted are these: 5 and 50 μM compound in 2.5% DMSO, 30 min at 37° C., compared to HMBS with DMSO only. On the procedure: Activity measurements were carried out using TECAN plate reader for absorbance measurements. Activity measurements were based on measuring the light absorbance at 405 nm for determining the concentration of formed product, preuroporphyrinogen. Standard curve for measurements was measured using absorbance of known concentrations for Uroporphyrin I dihydrochloride, the cyclic derivative of preuroporphyrinogen. Two concentrations of the compound of Example 14, i.e. 5 and 50 μM in 2.5% DMSO were used. Protein was incubated 30 min in 37° C. with the compound, and mixed with MIX-buffer (50 mM HEPES pH 8, 2.5% DMSO) on Corning 96 well plate (clear bottom, half area, black). The solutions were pre-warmed to 37° C. prior to reaction. Reaction was started by adding PBG and after 5 min the reaction was stopped by adding the STOP solution (5 M HCl and 0.1% p-Benzoquinone mixed 1:1). Wells were covered and protected from light during the whole reaction.

In general, Kd refers to the concentration at which binding is half-saturated. Low readings indicate tighter binding, high ones weaker binding. As to `COc1ccc(C(=O)c2ccc(Cl)c([N+](=O)[O-])c2)cc1`, the affinity in series [1], expressed as Kd, was 300 µM. As to `Cc1cccc(C)c1C(=O)c1ccc(Cl)c([N+](=O)[O-])c1`, the KD result in series [1] is listed as “mM range (no saturation with 500 μM)”.

Take `O=C(c1ccc(Br)cc1)c1ccc(Cl)c([N+](=O)[O-])c1`: the KD entry in series [1] was “mM range (no saturation with 500 μM)”. As to `O=C(c1ccc(Cl)c([N+](=O)[O-])c1)c1ccc(Cl)c([N+](=O)[O-])c1`, the KD result in series [1] was “mM range (no saturation with 500 μM)”. Regarding `O=C(c1ccc(Cl)c(Cl)c1)c1ccc(Cl)c([N+](=O)[O-])c1`, the affinity in series [1], expressed as Kd, was 140 µM. A word on the solubility: it is how much of the substance goes into solution per volume. Regarding `O=C(c1ccc(OC(F)(F)F)cc1)c1ccc(Cl)c(C(F)(F)F)c1`, in series [2], the “Soluble in DMSO (100%)” value was “Yes” and the solubility came out at 52 µM (≈ 19.2 µg/mL).

In series [1], `Cc1ccc(C(=O)c2ccc(Cl)cc2)cc1[N+](=O)[O-]` displayed a Kd of 7 µM. The compound `O=Cc1cc(Cc2ccccc2Cl)cc([N+](=O)[O-])c1O` [drawing 43] had a Kd in series [1] of 90 µM. This Kd is about 13-fold higher than that of the compound before. Take `O=Cc1cc(Cc2ccccc2Cl)ccc1O`: the Kd in series [1] stood at 190 µM.

The ΔTm is the change in melting temperature against a reference sample. As for `O=Cc1cc(Cc2ccccc2)cc([N+](=O)[O-])c1O` [BG-3], the ΔTm at 122 µM in series [3] is 6.6 °C. For the same compound, the “Protection against tryptic proteolysis” value in series [4] was “+/− (+/−, ±2%)”. `COc1ccc(C(O)c2ccc(Cl)c([N+](=O)[O-])c2)cc1` (stereo not drawn) registered a Kd in series [1] greater than 200 µM.

For `O=Cc1cc(Cc2ccccc2Cl)cc([N+](=O)[O-])c1O` [drawing 59], in series [5], the Binding result is “Yes” and the dissociation constant (Kd) is 83 µM. Besides, in series [2], the “Soluble in DMSO (100%)” value is “Yes” and the concentration in solution (solubility) was 384 µM (≈ 112 µg/mL). In series [1], `O=C(c1ccc(OCCN2CCCC2)cc1)c1ccc(N2CCCC2)c([N+](=O)[O-])c1` yielded a Kd greater than 200 µM. `O=C(c1ccccc1)c1ccc(Cl)c([N+](=O)[O-])c1` [drawing 44]: in series [1], the KD entry is reported as “mM range (no”.

`OCc1cc(Cc2ccccc2Cl)cc(C(F)(F)F)c1O` [Example 14, 4-(2-chlorobenzyl)-2-(hydroxymethyl)-6-(trifluoromethyl) phenol]: the “HMBS activity in presence of compound” value in series [6] is given as “activation of HMBS”. `O=Cc1cc(Cc2ccccc2Cl)cc(C(F)(F)F)c1O`: in series [5], the Binding entry is reported as “Yes” and the Kd amounted to 9.3 µM. Also, in series [2], the “Soluble in DMSO (100%)” value is “Yes” and the Solubility in buffer result was “Yes”. Take `O=[N+]([O-])c1cc(Cc2ccccc2Cl)cc(CO)c1O` [BG-4]: in series [3], the ΔTm at 122 µM is 4.7 °C. Moreover, the “Protection against tryptic proteolysis” value in series [4] is on record as “+/− (+/−, ±2%)”. For the compound `O=C(c1ccncc1)c1ccc(Cl)c([N+](=O)[O-])c1`, in series [1], the KD entry was “mM range (no saturation with 500 μM)”.

Turning to `CN(C(=O)c1ccc(Cl)c([N+](=O)[O-])c1)c1ccccc1`, the KD entry in series [1] was “mM range (no saturation with 500 μM)”. On to `O=C(c1ccc(Cl)cc1)c1cc([N+](=O)[O-])ccc1Cl`, for which binding in series [1] was characterised by a dissociation constant (Kd) of 110 µM. Regarding `OCc1cc(Cc2ccccc2Cl)cc(C(F)(F)F)c1O` [drawing 62], in series [5], the Binding entry is listed as “Yes” and the Kd was found to be 90 µM. In series [2], the “Soluble in DMSO (100%)” value is recorded as “Yes” and the Solubility in buffer entry is “Yes”.
